Source: patent USRE37781E1, “Substituted cyclic carbonyls and derivatives thereof useful as retroviral protease inhibitors” (DuPont Pharmaceuticals Company, priority 1991, dated 2002)
≈ marks a conversion by molar mass, not a printed value. Like-named read-outs stand apart in the source and are kept apart here.

Columns and labels:
[1] = target: single-chain tethered dimer of HIV protease (Human immunodeficiency virus 1, UniProt P04585); assay: biochemical; assay type: biochemical; set-up: fused on or other part: A second copy of the same protease unit is joined to the first by a short peptide tether, giving one polypeptide
[2] = tested on: HIV-1 (RF) in MT-2 cells; assay: microbe, parasite or virus in culture; assay type: cell-based
How it was run: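 Read-out: gag and pol viral RNA captured by 5′-biotinylated oligonucleotides on streptavidin-coated wells, detected with alkaline phosphatase-linked reporter oligonucleotides, calibrated against BH10 in vitro transcripts. Virus stocks (RF, MN, IIIB) come from H9 cultures; MT-2 host cells kept in RPMI 1640, 5% FCS.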

[3] = read-out: HPLC K1, Table 2d, HIV protease inhibition, HPLC method
[4] = Human immunodeficiency virus 1, MT2, 48 h, Table 2d, HIV RNA assay, read-out: IC90
[5] = Table 2d, HIV protease inhibition, HPLC method, read-out: HPLC K1
[6] = read-out: HPLC K1, Table 2d, class symbols
[7] = Human immunodeficiency virus 1, MT2, 48 h, Table 2d, class symbols, read-out: IC90
[8] = Table 2d, class symbols, read-out: HPLC K1
[9] = HIV protease inhibition, HPLC method, Table 2d, read-out: HPLC K1
[10] = HIV RNA assay, HIV-1 infected MT-2 cells, Table 2d

O=S1(=O)N(Cc2ccccc2)C(Cc2ccccc2)C2OC2C(Cc2ccccc2)N1Cc1ccccc1 (stereo not shown) [31F]
Ki ([1]; Table 2u (second printing), HPLC method, read-out: K1 (HPLC)): > 1000 nM
Ki ([1]; Table 2u, HPLC method, read-out: K1 (HPLC)): > 1000 nM
IC90 ([2]; Table 2u): ++/+ (The ++/+ is used in the cases where an IC90 was determined to be >50 μg/mL)
IC90 ([2]; Table 2u (second printing)): ++/+ (The ++/+ is used in the cases where an IC90 was determined to be >50 μg/mL)

NC(=O)Cc1cccc(CN2C(=O)N(Cc3cccc(CC(N)=O)c3)C(Cc3ccccc3)C(O)C(O)C2Cc2ccccc2)c1 (stereo not shown) [15DV]
Ki [1, 3]: < 10 nM
IC90 [2, 4]: < 10 µg/mL

CN(C)Cc1nc(-c2cccc(CN3C(=O)N(Cc4cccc(-c5noc(CN(C)C)n5)c4)C(Cc4ccccc4)C(O)C(O)C3Cc3ccccc3)c2)no1.Cl.Cl (stereo not shown) [Example 15AO]
Ki [1, 5]: < 10 nM
IC90 ([2]; Table 2d, HIV RNA assay): +++ (+++=<10 μg/mL)

O=C1N(Cc2ccccc2)C(Cc2ccccc2)C(O)C(O)C(Cc2ccccc2)N1Cc1ccccc1 (stereo not shown) [Example 13L]
Ki [1, 6]: < 10 nM
IC90 [2, 7]: < 10 µg/mL

CC(=O)c1cccc(CN2C(=O)N(Cc3cccc(C(C)=O)c3)C(Cc3ccc(F)cc3)C(O)C(O)C2Cc2ccc(F)cc2)c1 (stereo not shown) [20N]
Ki ([1]; Table 2i, read-out: HPLC Ki): < 10 nM
IC90 ([2]; Table 2i): +++ (+++=<10 μg/mL)

Cl.Cl.O=C(NCCCCCN1C(=O)N(CCCCCNC(=O)OCc2cccnc2)C(Cc2ccccc2)C(O)C(O)C1Cc1ccccc1)OCc1cccnc1 (stereo not shown) [15EU]
Ki [1, 5]: < 10 nM
IC90 ([2]; Table 2d, HIV RNA assay): +++ (+++=<10 μg/mL)

NC(=O)Sc1cccc(CN2C(=O)N(Cc3cccc(SC(N)=O)c3)C(Cc3ccccc3)C(O)C(O)C2Cc2ccccc2)c1 (stereo not shown) [Example 12Q]
Ki [1, 8]: < 10 nM
IC90 ([2]; Table 2d, class symbols): + (+=>100 μg/mL)

Cl.Cl.O=C(NCCCCCN1C(=O)N(CCCCCNC(=O)c2ccncc2)C(Cc2ccccc2)C(O)C(O)C1Cc1ccccc1)c1ccncc1 (stereo not shown) [15FA]
Ki [1, 9]: 10 to 1000 nM
IC90 [2, 10]: +++ (+++=<10 μg/mL)

O=C1N(Cc2cccc(C(=NO)C(F)(F)F)c2)C(Cc2ccccc2)C(O)C(O)C(Cc2ccccc2)N1Cc1cccc(C(=NO)C(F)(F)F)c1 (stereo not shown) [Example 15XR]
Ki [1, 3]: < 10 nM
IC90 [2, 4]: < 10 µg/mL

NCCCCN1C(=O)N(CCCCN)C(Cc2ccccc2)C(O)C(O)C1Cc1ccccc1 (stereo not shown) [15FI]
Ki ([1]; read-out: HPLC K1, HIV protease inhibition, HPLC method, Table 2d): > 1000 nM
IC90 ([2]; Human immunodeficiency virus 1, MT2, 48 h, HIV RNA assay, HIV-1 infected MT-2 cells, Table 2d, read-out: IC90): > 50 µg/mL

O=C1NC(Cc2ccccc2)C(O)C(O)C(Cc2ccccc2)N1 (stereo not shown) [Example 13P]
Ki [1, 8]: > 1000 nM
IC90 ([2]; Table 2d, class symbols): + (+=>100 μg/mL)

O=S1(=O)N(Cc2cccc(C=NO)c2)C(Cc2ccccc2)C(O)C(O)C(Cc2ccccc2)N1Cc1cccc(C=NO)c1 (stereo not shown) [23S]
Ki ([1]; Table 2m, read-out: HPLC Ki): < 10 nM
IC90 ([2]; Table 2m): +++ (+++=<10 μg/mL)

Oc1ccc(CN2C(=S)N(Cc3ccc(O)cc3)C(Cc3ccccc3)C(O)C(O)C2Cc2ccccc2)cc1 (stereo not shown) [Example 27F]
Ki ([1]; Table 2q, read-out: HPLC Ki): < 10 nM
IC90 ([2]; Table 2q): +++ (+++=<10 μg/mL)

O=C1N(Cc2cccc(C(O)C(F)(F)F)c2)C(Cc2ccccc2)C(O)C(O)C(Cc2ccccc2)N1Cc1cccc(C(O)C(F)(F)F)c1 (stereo not shown) [Example 15XI]
Ki [1, 3]: < 10 nM
IC90 [2, 4]: < 10 µg/mL

Cl.NCC(=O)Nc1cccc(CN2C(=O)N(Cc3ccc(CO)cc3)C(Cc3ccccc3)C(O)C(O)C2Cc2ccccc2)c1 (stereo not shown) [15XT]
Ki [1, 5]: < 10 nM
IC90 ([2]; Table 2d, HIV RNA assay): +++ (+++=<10 μg/mL)

CC(=O)CCCCN1C(=O)N(CCCCC(C)=O)C(Cc2ccccc2)C(O)C(O)C1Cc1ccccc1 (stereo not shown) [Example 15WB]
Ki [1, 6]: 10 to 1000 nM
IC90 [2, 7]: 10 to 100 µg/mL (≈ 19.1 to 191 µM)

O=C1N(CCCCO)C(Cc2ccccc2)C(O)C(O)C(Cc2ccccc2)N1CCCCO (stereo not shown) [Example 12F]
Ki [1, 6]: 10 to 1000 nM
IC90 [2, 7]: 10 to 100 µg/mL (≈ 21.2 to 212 µM)

Oc1cccc(CN2C(=S)N(Cc3cccc(O)c3)C(Cc3ccccc3)C(O)C(O)C2Cc2ccccc2)c1 (stereo not shown) [Example 27J]
Ki ([1]; Table 2q, read-out: HPLC Ki): < 10 nM
IC90 ([2]; Table 2q): +++ (+++=<10 μg/mL)

NCCCCCCN1C(=O)N(Cc2ccc(CO)cc2)C(Cc2ccccc2)C(O)C(O)C1Cc1ccccc1 (stereo not shown) [Example 15WD]
Ki [1, 6]: 10 to 1000 nM
IC90 [2, 7]: < 10 µg/mL

COCCCCCN1C(=O)N(CCCCCO)C(Cc2ccccc2)C(O)C(O)C1Cc1ccccc1 (stereo not shown) [Example 15VW]
Ki [1, 6]: < 10 nM
IC90 [2, 7]: < 10 µg/mL

O=C1N(Cc2cccc(-c3cn[nH]c3)c2)C(Cc2ccccc2)C(O)C(O)C(Cc2ccccc2)N1Cc1cccc(-c2cn[nH]c2)c1 (stereo not shown) [Example 15BN]
Ki [1, 3]: < 10 nM
IC90 [2, 4]: < 10 µg/mL

O=C1N(Cc2ccc(C(O)CO)cc2)C(Cc2ccccc2)C(O)C(O)C(Cc2ccccc2)N1Cc1ccc(C(O)CO)cc1 (stereo not shown) [11L]
Ki [1, 6]: < 10 nM
IC90 [2, 7]: < 10 µg/mL

O=C(NCCCCCN1C(=O)N(CCCCCNC(=O)c2ccccc2F)C(Cc2ccccc2)C(O)C(O)C1Cc1ccccc1)c1ccc(F)cc1 (stereo not shown) [15FC]
Ki [1, 9]: 10 to 1000 nM
IC90 [2, 10]: ++/+ (The ++/+ is used in the cases where an IC90 was determined to be >50 μg/mL)

Cl.Cl.O=C(Nc1cccc(CN2C(=O)N(Cc3cccc(NC(=O)c4ccncc4)c3)C(Cc3ccccc3)C(O)C(O)C2Cc2ccccc2)c1)c1ccncc1 (stereo not shown) [Example 15AC]
Ki [1, 5]: < 10 nM
IC90 ([2]; Table 2d, HIV RNA assay): +++ (+++=<10 μg/mL)

CNc1cccc(CN2[C@H](Cc3ccccc3)[C@H](O)[C@@H](O)[C@@H](Cc3ccccc3)N(Cc3cccc(NC)c3)P2(=O)Oc2ccccc2)c1 (stereo partly shown) [28L]
Ki ([1]; Table 2r, read-out: Ki HPLC): 10 to 1000 nM
IC90 ([2]; Table 2r): ++ (++=10 to 100 μg/mL)

CC(O)c1ccc(CN2C(=O)N(Cc3ccc(C(C)O)cc3)C(Cc3ccccc3)C(O)C(O)C2Cc2ccccc2)cc1 (stereo not shown) [20M]
Ki ([1]; Table 2i, read-out: HPLC Ki): < 10 nM
IC90 ([2]; Table 2i): +++ (+++=<10 μg/mL)

O=C1N(Cc2cccc(CCO)c2)C(Cc2ccccc2)C(O)C(O)C(Cc2ccccc2)N1Cc1cccc(CCO)c1 (stereo not shown) [15DX]
Ki [1, 5]: < 10 nM
IC90 ([2]; Table 2d, HIV RNA assay): +++ (+++=<10 μg/mL)

COc1cccc(CC2C(O)C(O)C(Cc3cccc(OC)c3)N(Cc3cccc(OC)c3)C(=O)N2Cc2cccc(OC)c2)c1 (stereo not shown) [20AU]
Ki ([1]; Table 2i, read-out: HPLC Ki): < 10 nM
IC90 ([2]; Table 2i): +++ (+++=<10 μg/mL)

COC(=O)NCCCCCN1C(=O)N(CCCCCNC(=O)OC)C(Cc2ccccc2)C(O)C(O)C1Cc1ccccc1 (stereo not shown) [15EQ]
Ki [1, 5]: 10 to 1000 nM
IC90 ([2]; Table 2d, HIV RNA assay): ++/+ (The ++/+ is used in the cases where an IC90 was determined to be >50 μg/mL)

CNC(=O)OCCCCCCN1C(=O)N(CCCCCCOC(=O)NC)C(Cc2ccccc2)C(O)C(O)C1Cc1ccccc1 (stereo not shown) [Example 12W]
Ki [1, 6]: 10 to 1000 nM
IC90 [2, 7]: 10 to 100 µg/mL (≈ 15.6 to 156 µM)

CCNCc1ccc(C(=O)OCc2ccc(CN3C(=O)N(Cc4ccc(COC(=O)c5ccc(CNCC)cc5)cc4)[C@H](Cc4ccccc4)[C@H](O)[C@@H](O)[C@H]3Cc3ccccc3)cc2)cc1.Cl [29V]
Ki ([1]; Table 2s, read-out: Ki (HPLC)): > 1000 nM
IC90 ([2]; Table 2s): +++ (+++=<10 μg/mL)

O=C(COCc1ccccc1)c1cccc(CN2C(=O)N(Cc3cccc(C(=O)COCc4ccccc4)c3)C(Cc3ccccc3)C(O)C(O)C2Cc2ccccc2)c1 (stereo not shown) [Example 15BI]
Ki [1, 3]: < 10 nM
IC90 [2, 4]: < 10 µg/mL

CC(=O)c1cccc(CN2C(=O)N(Cc3cccc(C(=O)CCN(C)C)c3)C(Cc3ccccc3)C(O)C(O)C2Cc2ccccc2)c1 (stereo not shown) [15AD]
Ki [1, 5]: < 10 nM
IC90 ([2]; Table 2d, HIV RNA assay): +++ (+++=<10 μg/mL)

O=C(c1cccc(CN2C(=O)N(Cc3cccc(C(=O)c4cc[nH]n4)c3)C(Cc3ccccc3)C(O)C(O)C2Cc2ccccc2)c1)c1cc[nH]n1 (stereo not shown) [Example 15YN]
Ki [1, 3]: < 10 nM
IC90 [2, 4]: < 10 µg/mL

NC(=O)c1cccc(CN2C(=O)N(Cc3cccc(C(N)=O)c3)C(Cc3ccc(F)cc3)C(O)C(O)C2Cc2ccc(F)cc2)c1 (stereo not shown) [20L]
Ki ([1]; Table 2i, read-out: HPLC Ki): < 10 nM
IC90 ([2]; Table 2i): +++ (+++=<10 μg/mL)

CC(C)(C)OC(=O)c1ccc(CN2C(=O)N(Cc3ccc(C(=O)OC(C)(C)C)o3)C(Cc3ccccc3)C(O)C(O)C2Cc2ccccc2)o1 (stereo not shown) [Example 13W]
Ki [1, 8]: > 1000 nM
IC90 ([2]; Table 2d, class symbols): +++ (+++=<10 μg/mL)

CC(=O)NCCCCCN1C(=O)N(CCCCCNC(C)=O)C(Cc2ccccc2)C(O)C(O)C1Cc1ccccc1 (stereo not shown) [15ET]
Ki [1, 5]: 10 to 1000 nM
IC90 ([2]; Table 2d, HIV RNA assay): ++/+ (The ++/+ is used in the cases where an IC90 was determined to be >50 μg/mL)
